US9113629B2, “4-amino-6-(4-substituted-phenyl)-picolinates and 6-amino-2-(4-substituted-phenyl)-pyrimidine-4-carboxylates and their use as herbicides” (DOW AGROSCIENCES LLC, priority 2013, dated 2015)
Like-named read-outs stand apart in the source and are kept apart here.

Assays:
[1] = system: Key Broadleaf Weed and Crop Species; assay: Post-emergent Test II herbicidal activity (Table 5); type: in vivo; settings: post-emergence, 336 h, 14 days after application; for pest or weed control at 70 g/ha: application rate 70 g ai/ha; for pest or weed control at 140 g/ha: application rate 140 g ai/ha
Summary of the method: (§1)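 Scoring: visual, 0–100% injury at 14 d versus untreated. Treatment: overhead track spray, 187 L/ha, onto plants at the first–second true leaf stage. Growth: greenhouse, ~15 h light, 23–29 °C day, 22–28 °C night.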

[2] = system: Key Grass and Sedge Weeds as well as Grass Crops; assay: Post-emergent Test II herbicidal activity (Table 6); type: in vivo; settings: post-emergence, 336 h; for pest or weed control at 70 g/ha: 70 g ai/ha; for pest or weed control at 140 g/ha: 140 g ai/ha
Summary of the method: as §1

[3] = ABUTH: velvetleaf (Abutilon theophrasti), read-out: Visual Growth Reduction (%) 14 Days After Application, ABUTH
[4] = AMARE: redroot pigweed (Amaranthus retroflexus), read-out: Visual Growth Reduction (%) 14 Days After Application, AMARE
[5] = BRSNN: oilseed-rape, canola (Brassica napus), read-out: Visual Growth Reduction (%) 14 Days After Application, BRSNN
[6] = CHEAL: lambsquarters (Chenopodium album), read-out: Visual Growth Reduction (%) 14 Days After Application, CHEAL
[7] = EPHHL: wild poinsettia (Euphorbia heterophylla), read-out: Visual Growth Reduction (%) 14 Days After Application, EPHHL
[8] = HELAN: sunflower (Helianthus annuus), read-out: Visual Growth Reduction (%) 14 Days After Application, HELAN
[9] = VIOTR: wild pansy (Viola tricolor), read-out: Visual Growth Reduction (%) 14 Days After Application, VIOTR
[10] = CYPES: yellow nutsedge (Cyperus esculentus), read-out: Visual Growth Reduction (%) 14 Days After Application, CYPES
[11] = DIGSA: crabgrass (Digitaria sanguinalis), read-out: Visual Growth Reduction (%) 14 Days After Application, DIGSA
[12] = ECHCG: barnyardgrass (Echinochloa crus-galli), read-out: Visual Growth Reduction (%) 14 Days After Application, ECHCG
[13] = ORYSA: rice (Oryza sativa), crop, read-out: Visual Growth Reduction (%) 14 Days After Application, ORYSA
[14] = SETFA: giant foxtail (Setaria faberi), read-out: Visual Growth Reduction (%) 14 Days After Application, SETFA
[15] = SORVU: grain sorghum (Sorghum vulgare), read-out: Visual Growth Reduction (%) 14 Days After Application, SORVU
[16] = TRZSS (wheat, Triticum aestivum), crop, read-out: Visual Growth Reduction (%) 14 Days After Application, TRZSS
[17] = ZEAMX: maize, corn (Zea mays), crop, read-out: Visual Growth Reduction (%) 14 Days After Application, ZEAMX

Structure (SMILES) | pest or weed control at 70 g/ha [1, 3] [%] | pest or weed control at 140 g/ha [1, 3] [%] | pest or weed control at 70 g/ha [1, 4] [%] | pest or weed control at 140 g/ha [1, 4] [%] | pest or weed control at 70 g/ha [1, 5] [%] | pest or weed control at 140 g/ha [1, 5] [%] | pest or weed control at 70 g/ha [1, 6] [%] | pest or weed control at 140 g/ha [1, 6] [%] | pest or weed control at 70 g/ha [1, 7] [%] | pest or weed control at 140 g/ha [1, 7] [%] | pest or weed control at 70 g/ha [1, 8] [%] | pest or weed control at 140 g/ha [1, 8] [%] | pest or weed control at 70 g/ha [1, 9] [%] | pest or weed control at 140 g/ha [1, 9] [%] | melting point [°C] | pest or weed control at 70 g/ha [2, 10] [%] | pest or weed control at 140 g/ha [2, 10] [%] | pest or weed control at 70 g/ha [2, 11] [%] | pest or weed control at 140 g/ha [2, 11] [%] | pest or weed control at 70 g/ha [2, 12] [%] | other results
COC(=O)c1nc(-c2ccc(I)c(F)c2)c(F)c(N)c1Cl [Compound 132] | 95 to 100 | 95 to 100 | 95 to 100 | 95 to 100 | 95 to 100 | 95 to 100 | 95 to 100 | 95 to 100 | 95 to 100 | 95 to 100 | 95 to 100 | 95 to 100 | 95 to 100 | 95 to 100 | 138 to 140 | 45 to 59 | 85 to 94 | 85 to 94 | 85 to 94 | 85 to 94 | pest or weed control at 140 g/ha [2, 12]: 75 to 84%; pest or weed control at 70 g/ha [2, 13]: 0 to 29%; pest or weed control at 140 g/ha [2, 13]: 0 to 29%; pest or weed control at 70 g/ha [2, 14]: 0 to 29%; pest or weed control at 140 g/ha [2, 14]: 60 to 74%; pest or weed control at 70 g/ha [2, 15]: 85 to 94%; pest or weed control at 140 g/ha [2, 15]: 95 to 100%; pest or weed control at 70 g/ha [2, 16]: 0 to 29%; pest or weed control at 140 g/ha [2, 16]: 30 to 44%; pest or weed control at 70 g/ha [2, 17]: 95 to 100%; pest or weed control at 140 g/ha [2, 17]: 95 to 100%
C#Cc1ccc(-c2nc(C(=O)OC)c(Cl)c(N)c2F)cc1F [Compound 133, methyl 4-amino-3-chloro-6-(4-ethynyl-3-fluorophenyl)-5-fluoropicolinate] | 85 to 94 | 95 to 100 | 75 to 84 | 75 to 84 | 75 to 84 | 95 to 100 | 95 to 100 | 95 to 100 | 85 to 94 | 95 to 100 | 95 to 100 | 95 to 100 | 0 to 29 | 30 to 44 | 141 to 143 | 30 to 44 | 45 to 59 | 0 to 29 | 60 to 74 | 0 to 29 | pest or weed control at 140 g/ha [2, 12]: 60 to 74%; pest or weed control at 70 g/ha [2, 13]: 0 to 29%; pest or weed control at 140 g/ha [2, 13]: 0 to 29%; pest or weed control at 70 g/ha [2, 14]: 45 to 59%; pest or weed control at 140 g/ha [2, 14]: 75 to 84%; pest or weed control at 70 g/ha [2, 15]: 60 to 74%; pest or weed control at 140 g/ha [2, 15]: 75 to 84%; pest or weed control at 70 g/ha [2, 16]: 30 to 44%; pest or weed control at 140 g/ha [2, 16]: 30 to 44%; pest or weed control at 70 g/ha [2, 17]: 95 to 100%; pest or weed control at 140 g/ha [2, 17]: 95 to 100%
Nc1c(F)c(-c2ccc(C(F)(F)F)c(F)c2)nc(C(=O)O)c1Cl [Compound 134] | 85 to 94 | 85 to 94 | 85 to 94 | 95 to 100 | 95 to 100 | 95 to 100 | 95 to 100 | 95 to 100 | 95 to 100 | 95 to 100 | 95 to 100 | 95 to 100 | 95 to 100 | 95 to 100 | 124 to 126 | 95 to 100 | 95 to 100 | 75 to 84 | 85 to 94 | 95 to 100 | pest or weed control at 140 g/ha [2, 12]: 95 to 100%; pest or weed control at 70 g/ha [2, 13]: 45 to 59%; pest or weed control at 140 g/ha [2, 13]: 45 to 59%; pest or weed control at 70 g/ha [2, 14]: 95 to 100%; pest or weed control at 140 g/ha [2, 14]: 95 to 100%; pest or weed control at 70 g/ha [2, 15]: 85 to 94%; pest or weed control at 140 g/ha [2, 15]: 85 to 94%; pest or weed control at 70 g/ha [2, 16]: 60 to 74%; pest or weed control at 140 g/ha [2, 16]: 75 to 84%; pest or weed control at 70 g/ha [2, 17]: 45 to 59%; pest or weed control at 140 g/ha [2, 17]: 60 to 74%
